Test results taken from paper PMC10732398 (PLOS Pathogens, 2023).

Test system: ⍺4β7 on primary CD8^+ T cells
Assay: Flow cytometry: FAM-conjugated pCD4^165-178 binding to RA-treated primary CD8^+ T cells
Parameters: species or system human
Settings: FAM-Ttds-labelled peptide 1.25 μg/200,000 cells in 100 μl; presence or absence of Mn^++
Excerpt: To further investigate the interaction between pCD4^165-178 and ⍺4β7 we attached a fluorescein dye to its amino terminus via a trioxatridecan-succinamic acid (Ttds) linker (Fig 5A). A scrambled pCD4^165-178 was employed as a control. […] FIB504 and vedolizumab inhibited binding by ~50%. This inhibition pattern resembles the one we obtained when inhibiting D1D2-Ig⍺tp with the same antagonists (Fig 3). We conclude that the CD4 D2 G β-strand binds directly to the headpiece region of ⍺4β7 in a cation dependent manner. Support for this conclusion, in the form of site directed mutagenesis within the D2 G β-strand is provided below.
Fig 5 Direct binding of pCD4^165-178 to ⍺4β7 on primary T cells. (A) Sequence of FAM -conjugated pCD4^165-178 and a scrambled derivative (FAM-scr pCD4^165-178). (B) Flow-cytometry derived histogram of pCD4^165-178 binding to RA -cultured CD8^+ T cells. pCD4^165-178 in the presence (green), or absence of Mn^++(black). Unstained cells are shown (grey). (C) Binding of pCD4^165-178 and its scrambled derivative to CD8^+ T cells in the presence of MnCl2 as in panel B, and in the presence of ⍺4 and ⍺4β7 antagonists, as indicated. Y-axis indicates % cells bound. Error bars represent standard error from 3 independent experiments.
Cells were stained with fluoresceine conjugated mAbs or recombinant proteins using standard procedures preceded by Fc receptor blocking with human IgG. Buffers used were 10 mM HEPES 150 mM NaCl (HBS Buffer) with 100 μM CaCl2. 1 mM MnCl2 was also included, unless otherwise specified. Buffer without divalent cations included 0.1 mM EDTA. Unlabeled mAb or protein inhibitors were preincubated with cells or proteins at a 5X molar excess for 15 min on ice. FAM labeled peptides were used at 1.25 μg/ 200,000 cells in a 100 μl volume. Data were acquired using a FACSCanto II (BD Biosciences) and analyzed with FlowJo software (BD Biosciences). Plotted MFI values represent absolute values.

In the case of “QKKVEFKIDIVVLA [CD4 P42, linear CD4 D2 peptide, residues 165-178, G β-strand]”, the “binding of FAM-labelled peptide to RA-treated CD8^+ T cells (in words)” value is reported as “reacted strongly in the presence, but not in the absence of Mn^++”.
